Reference: patent publication US20200399262A1, “COMPOUNDS FOR INHIBITING PROTEIN DEGRADATION AND METHODS OF USE THEREOF IN THE TREATMENT OF CANCER” (PI Therapeutics Ltd, priority 2018, published 2020)
Converted amounts (≈) assume the structure as drawn.

Columns and labels:
proteasome = assay: Proteasome activity (Proteasome-GLO) in intact MM1.S cells; type: cell-based; details: 3 hr at 37° C.
Experimental: Proteasome activity was measured in intact MM1.S cells as cleavage of peptide substrates, specific for Trypsin like (TL), Chemotrypsin like (CTL) and Caspase like (PL) activities of the proteasome following treatment with Compound B1, Compound AA or Bortezomib (BTZ) at ˜EC50 concentrations for 3 hr at 37° C. BTZ was used as positive control.
Proteasome activity. The assay was performed only when cell viability is ≥90%. Cells were seeded in 96-well white clear bottom plates and treated with diluted compounds or vehicle control in triplicates for 3 hours at various concentrations. Catalytic activity was measured using three luminogenic proteasome substrates: Suc-LLVY-aminoluciferin (Succinyl-leucine-leucine-valine-tyrosine-aminoluciferin), Z-LRR-aminoluciferin (Z-leucine-arginine-arginine-aminoluciferin) and Z-nLPnLD-aminoluciferin (Z-norleucine-proline-norleucine-aspartate-aminoluciferin) for the chymotrypsin-like, trypsin-like and caspase-like activities, respectively (Proteasome-GLO, Promega). The emitted light was proportional to the proteasomal activity. Catalytic activity was calculated as the percent activity from control vehicle-treated cells.
MM1.S cells, were treated with Compound B1, Compound AA or Bortezomib (BTZ) at various concentrations for 3 hr at 37° C. […] Proteasome activity was measured by cleavage of proteasome-specific peptide substrates for TL, CTL and PL activities.

MM1.S = assay: Cell viability, ATPlite 1-step, MM cell lines; type: cell-based; details: Homo sapiens; MM1.S MM cell line; 48 hours; read-out: Compound EC50
Experimental: (§1) Cell Viability. The assay was performed only when cell viability was ≥90%. Cells were seeded in 96-well white clear bottom plates at concentration of 100,000 cells/mL and treated with serially diluted compounds or vehicle (DMSO) control in triplicates for 48 hours (h). Cell viability was determined using the ATPlite 1-step assay system (PerkinElmer). The method was based on the production of light caused by the reaction of ATP, which was a marker for cell viability. […] were added to the plates which were read in a plate reader for luminescence. The emitted light is proportional to the ATP concentration. Viability was calculated as the percent of viable cells from control vehicle-treated cells. EC50 was calculated using Prism software.
(§2) Potency of compounds were assessed by viability assay.

U266 = assay: Cell viability, ATPlite 1-step, MM cell lines; type: cell-based; details: Homo sapiens, U-266; U266 MM cell line; 48 hours; read-out: Compound EC50
Experimental: as §1, §2

MM cell lines = assay: Cell viability, ATPlite 1-step, MM cell lines; type: cell-based; details: cell line printed N/A; read-out: Compound EC50
Experimental: as §1, §2

[1] = tested on: poly-ubiquitinated proteins; assay: Western blot of poly-ubiquitinated proteins in MM1.S cells; type: cell-based; details: SDS-PAGE immunoblot
Experimental: MM1.S cells were treated with Compound B1 (FIG. 1A), Compound AA (FIG. 1B) and Compound E1 (FIG. 1C) for indicated periods of time. Following treatment, the cells were harvested, and the lysates resolved on SDS-PAGE. Transferred membranes were blotted with antibodies as indicated. Actin was used as loading control.
Protein analysis by Western blot. At the end of treatment period, the cells were lysed with M-PER mammalian protein extraction reagent (ThermoFisher Scientific) supplemented with protease inhibitors. Equal protein amounts were resolved on pre-cast SDS-PAGE (ThermoFisher Scientific) and transferred to a PVDF membrane. The membrane was immunoblotted with antibodies as indicated. The following antibodies were used: Ub MAb (SC-8017, Santa-Cruz), ATF4, ATF6, phospho JNK, JNK (Cell signaling); eIF2alpha, phospho eIF2alpha (Novus).

[2] = Kinetic solubility by differential UV absorbance; type: physicochemical; details: aqueous buffer, kinetic from dmso stock; DMSO stock diluted in PBS, OD before and after centrifugation
Experimental: FIG. 3A-3B depict the kinetic solubility of Compound B1 (FIG. 3A) and Compound E1 (FIG. 3B) as measured by differential UV absorbance of the compounds, as performed before and after centrifugation. Soluble concentrations were determined when OD was equivalent between centrifuged and non-centrifuged fractions. Compounds were dissolved from co-solvent stock, and further serially 2-fold diluted in PBS. OD was measured at the maximal absorbance for each compound before (BC) and after (AC) centrifugation, using Spark 20M, Tecan.
Kinetic solubility quantification. Compound B1/Compound E1 DMSO stock was diluted with PBS by serial 2-fold dilutions. Then, the samples were centrifuged for 5 minutes at 17,000 g to precipitate any insoluble compound. Each sample was tested at a single wave length (Compound B1 at […]; Compound E1 at […]) in duplicate before and after centrifugation to assess solubility of the compound. Soluble concentrations were determined when optical density (OD) was equivalent between centrifuged and non-centrifuged fractions.
Kinetic solubility of all Compounds was determined by differential UV absorbance before and after centrifugation. […] Solubility concentration was determined when OD was equivalent between centrifuged and non-centrifuged fractions (FIG. 3A-3B).

SMILES | EC50 (MM1.S) [nM] | EC50 (U266) [nM] | further results
CC(C)C[C@H](NC(=O)[C@H](Cc1ccccc1)NC(=O)c1cnccn1)B(O)O [Bortezomib, reference compound] | – | – | inhibition of the enzymatic functions of the proteasome (TL, CTL and PL activities) (proteasome): specifically inhibits CTL activity
CN(CCCN=[N+]=[N-])CC(=O)NCC(=O)N1C/C(=C\c2ccc(C#N)cc2)C(=O)/C(=C/c2ccc(C#N)cc2)C1 [Compound B2] | < 300 | – | –
C#CCN(C)CC(=O)NCC(=O)N1C/C(=C\c2ccc(C#N)cc2)C(=O)/C(=C/c2ccc(C#N)cc2)C1 [Compound B3] | < 300 | < 300 | –
CC(=O)NCC(=O)N1C/C(=C\c2ccc(F)c(C#N)c2)C(=O)/C(=C/c2ccc(F)c(C#N)c2)C1 [Compound B5, N-{2-[(3E,5E)-3,5-bis[(3-cyano-4-fluorophenyl)methylidene]-4-oxopiperidin-1-yl]-2-oxoethyl}acetamide] | – | < 300 | –
CC(=O)NCC(=O)N1C/C(=C\c2ccc(C#N)cc2)C(=O)/C(=C/c2ccc(C#N)cc2)C1 [Compound B6, N-{2-[(3E,5E)-3,5-bis[(4-cyanophenyl)methylidene]-4-oxopiperidin-1-yl]-2-oxoethyl}acetamide] | < 300 | – | –
CC(=O)N[C@H](CO)C(=O)N1C/C(=C\c2ccc(C#N)cc2)C(=O)/C(=C/c2ccc(C#N)cc2)C1 [Compound B7, N-[(2R)-1-[(3E,5E)-3,5-bis[(4-cyanophenyl)methylidene]-4-oxopiperidin-1-yl]-3-hydroxy-1-oxopropan-2-yl]acetamide] | – | 300 to 1000 | –
N#Cc1ccc(/C=C2\CN(C(=O)CNC(=O)CO)C/C(=C\c3ccc(C#N)cc3)C2=O)cc1 [Compound B8] | < 300 | – | –
O=C1/C(=C/c2ccc(Cl)c(Cl)c2)CN(C(=O)CNc2ccccc2)C/C1=C\c1ccc(Cl)c(Cl)c1 [Compound B9] | – | ≥ 1000 | –
CNCC(=O)N1C/C(=C\c2ccc(Cl)c(Cl)c2)C(=O)/C(=C/c2ccc(Cl)c(Cl)c2)C1 [Compound B10] | – | ≥ 1000 | –
COCCNCC(=O)N1C/C(=C\c2ccc(Cl)c(Cl)c2)C(=O)/C(=C/c2ccc(Cl)c(Cl)c2)C1 [Compound B11] | – | ≥ 1000 | –
O=C1/C(=C/c2ccc(Cl)c(Cl)c2)CN(C(=O)CCc2ccccc2)C/C1=C\c1ccc(Cl)c(Cl)c1 [Compound B12] | – | 300 to 1000 | –
CC(=O)NCCC(=O)N1C/C(=C\c2ccc(Cl)c(Cl)c2)C(=O)/C(=C/c2ccc(Cl)c(Cl)c2)C1 [Compound B13] | < 300 | – | –
O=C1/C(=C/c2ccc(Cl)c(Cl)c2)CN(C(=O)C(O)Cc2ccccc2)C/C1=C\c1ccc(Cl)c(Cl)c1 (centres unmarked) [Compound B14] | – | 300 to 1000 | –
O=C1/C(=C/c2ccc(Cl)c(Cl)c2)CN(C(=O)C(Cc2ccccc2)C(=O)O)C/C1=C\c1ccc(Cl)c(Cl)c1 (centres unmarked) [Compound B15] | – | ≥ 1000 | –
O=C1/C(=C/c2ccc(Cl)c(Cl)c2)CN(C(=O)C2(Nc3ccccc3)CC2)C/C1=C\c1ccc(Cl)c(Cl)c1 [Compound B16] | < 300 | – | –
COC(Cc1ccccc1)C(=O)N1C/C(=C\c2ccc(Cl)c(Cl)c2)C(=O)/C(=C/c2ccc(Cl)c(Cl)c2)C1 (centres unmarked) [Compound B17] | – | < 300 | –
N[C@@H](Cc1ccccn1)C(=O)N1C/C(=C\c2ccc(Cl)c(Cl)c2)C(=O)/C(=C/c2ccc(Cl)c(Cl)c2)C1 [Compound B18] | – | < 300 | –
N[C@@H](Cc1cccc(O)c1)C(=O)N1C/C(=C\c2ccc(Cl)c(Cl)c2)C(=O)/C(=C/c2ccc(Cl)c(Cl)c2)C1 [Compound B19] | – | < 300 | –
O=C1/C(=C/c2ccc(Cl)c(Cl)c2)CN(C(=O)C2COCCN2)C/C1=C\c1ccc(Cl)c(Cl)c1 (centres unmarked) [Compound B20] | – | < 300 | –
N[C@@H](Cc1ccccc1)C(=O)N1C/C(=C\c2ccccc2)C(=O)/C(=C/c2ccc(Cl)c(Cl)c2)C1 [Compound B21] | – | 300 to 1000 | –
CC(=O)N(C)CCC(=O)N1C/C(=C\c2ccc(Cl)c(Cl)c2)C(=O)/C(=C/c2ccc(Cl)c(Cl)c2)C1 [Compound B29] | – | – | EC50 (MM cell lines): ≥ 1000 nM

Continued, in another order:

EC50 (MM1.S) [nM] | EC50 (U266) [nM] | SMILES | further results
– | < 300 | N[C@@H](Cc1ccccc1)C(=O)N1C/C(=C\c2ccc(Cl)c(Cl)c2)C(=O)/C(=C/c2cc(Cl)ccc2Cl)C1 [Compound B22] | –
< 300 | – | CC(=O)NC1(C(=O)N2C/C(=C\c3ccc(Cl)c(Cl)c3)C(=O)/C(=C/c3ccc(Cl)c(Cl)c3)C2)CC1 [Compound B23] | –
– | 300 to 1000 | CNC(=O)CCC(=O)N1C/C(=C\c2ccc(Cl)c(Cl)c2)C(=O)/C(=C/c2ccc(Cl)c(Cl)c2)C1 [Compound B24] | –
– | < 300 | CC(=O)NCC(=O)N1C/C(=C\c2ccc(Cl)c(Cl)c2)C(=O)/C(=C/c2ccc(Cl)c(Cl)c2)C1 [Compound B25] | –
≥ 1000 | – | O=C1/C(=C/c2ccc(Cl)c(Cl)c2)CN(C(=O)C2(Nc3ccccc3)CC2)CC1Cc1ccc(Cl)c(Cl)c1 (centres unmarked) [Compound B26] | –
– | ≥ 1000 | CC(=O)NCCC(=O)N1C/C(=C\c2ccc(Cl)c(Cl)c2)C(=O)C(Cc2ccc(Cl)c(Cl)c2)C1 (centres unmarked) [Compound B27] | –
– | < 300 | CC(C)C(Nc1ccccc1)C(=O)N1C/C(=C\c2ccc(Cl)c(Cl)c2)C(=O)/C(=C/c2ccc(Cl)c(Cl)c2)C1 (centres unmarked) [Compound B28] | –
– | < 300 | CNC(=O)CC(=O)N1C/C(=C\c2ccc(Cl)c(Cl)c2)C(=O)/C(=C/c2ccc(Cl)c(Cl)c2)C1 [Compound B30] | –
– | < 300 | CN(C)C(Cc1ccccc1)C(=O)N1C/C(=C\c2ccc(Cl)c(Cl)c2)C(=O)/C(=C/c2ccc(Cl)c(Cl)c2)C1 (centres unmarked) [Compound B32] | –
< 300 | – | CN(C)CCS(=O)(=O)N1C/C(=C\c2ccc(C#N)cc2)C(=O)/C(=C/c2ccc(C#N)cc2)C1 [Compound BA] | –
< 300 | – | CN(C)CCCS(=O)(=O)N1C/C(=C\c2ccc(F)c(C(F)(F)F)c2)C(=O)/C(=C/c2ccc(F)c(C(F)(F)F)c2)C1 [Compound CA] | –
– | < 300 | COCCS(=O)(=O)N1C/C(=C\c2ccc(Cl)c(Cl)c2)C(=O)/C(=C/c2ccc(Cl)c(Cl)c2)C1 [Compound D1] | –
< 300 | – | Cc1noc(C)c1/C=C1\CN(S(=O)(=O)CCCN(C)C)C/C(=C\c2c(C)noc2C)C1=O [Compound E1] | accumulation of poly-ubiquitinated proteins [1]: observable accumulation of poly-ubiquitinated proteins; solubility kinetic [2]: 2500 µM (≈ 1160 µg/mL)
< 300 | – | CN(C)CCCS(=O)(=O)N1C/C(=C\c2ccc(C#N)cc2)C(=O)C(Cc2ccc(C#N)cc2)C1 (centres unmarked) [Compound F1] | –
